# According to patent US20040091960A1, “Novel physiologically active peptides and use thereof” (priority 2000, published 2004):
# System: LH secretion
# Test: LH secretion promoting action (LH blood level)
# Assay type: in vivo
# Conditions: statement only, no experiment described
substance,measurement,value
"polypeptide of the present invention: mouse matured GALR2 ligand, amino acid sequence SEQ ID NO: 1, ligand peptide for galanin receptor (APAHRGRGGWTLNSAGYLLGPVLPVSSKADQGRKRDSALEILDLWKIIDGLPYSHSPRMT; Mouse)",LH secretion promoting action (LH blood level increasing action),specific LH blood level increasing action
